Laboratory results as given in ChEMBL document CHEMBL4828709, “Discovery of 2,4-pyrimidinediamine derivatives as potent dual inhibitors of ALK and HDAC” (Eur J Med Chem, 2021).
Calls of active or inactive are those of the source. The calls are words filed in the database; no cut-off is given here.

Tests used:
Histone deacetylase 1 [1] = target: T1, Histone deacetylase 1 (Homo sapiens, UniProt Q13547); conditions: Sf9, dose 100.0 nM, time 15.0 min
[2] = target: T2, ALK tyrosine kinase receptor (Homo sapiens, UniProt Q9UM73); test: Inhibition of ALK (unknown origin) at 10 nM preincubated for 10 mins followed by addition of substrate and ATP for 25 mins by caliper EZ reader method; conditions: time 35.0 min
Target sequence in this assay (Q9UM73 19-1620 limits assumed): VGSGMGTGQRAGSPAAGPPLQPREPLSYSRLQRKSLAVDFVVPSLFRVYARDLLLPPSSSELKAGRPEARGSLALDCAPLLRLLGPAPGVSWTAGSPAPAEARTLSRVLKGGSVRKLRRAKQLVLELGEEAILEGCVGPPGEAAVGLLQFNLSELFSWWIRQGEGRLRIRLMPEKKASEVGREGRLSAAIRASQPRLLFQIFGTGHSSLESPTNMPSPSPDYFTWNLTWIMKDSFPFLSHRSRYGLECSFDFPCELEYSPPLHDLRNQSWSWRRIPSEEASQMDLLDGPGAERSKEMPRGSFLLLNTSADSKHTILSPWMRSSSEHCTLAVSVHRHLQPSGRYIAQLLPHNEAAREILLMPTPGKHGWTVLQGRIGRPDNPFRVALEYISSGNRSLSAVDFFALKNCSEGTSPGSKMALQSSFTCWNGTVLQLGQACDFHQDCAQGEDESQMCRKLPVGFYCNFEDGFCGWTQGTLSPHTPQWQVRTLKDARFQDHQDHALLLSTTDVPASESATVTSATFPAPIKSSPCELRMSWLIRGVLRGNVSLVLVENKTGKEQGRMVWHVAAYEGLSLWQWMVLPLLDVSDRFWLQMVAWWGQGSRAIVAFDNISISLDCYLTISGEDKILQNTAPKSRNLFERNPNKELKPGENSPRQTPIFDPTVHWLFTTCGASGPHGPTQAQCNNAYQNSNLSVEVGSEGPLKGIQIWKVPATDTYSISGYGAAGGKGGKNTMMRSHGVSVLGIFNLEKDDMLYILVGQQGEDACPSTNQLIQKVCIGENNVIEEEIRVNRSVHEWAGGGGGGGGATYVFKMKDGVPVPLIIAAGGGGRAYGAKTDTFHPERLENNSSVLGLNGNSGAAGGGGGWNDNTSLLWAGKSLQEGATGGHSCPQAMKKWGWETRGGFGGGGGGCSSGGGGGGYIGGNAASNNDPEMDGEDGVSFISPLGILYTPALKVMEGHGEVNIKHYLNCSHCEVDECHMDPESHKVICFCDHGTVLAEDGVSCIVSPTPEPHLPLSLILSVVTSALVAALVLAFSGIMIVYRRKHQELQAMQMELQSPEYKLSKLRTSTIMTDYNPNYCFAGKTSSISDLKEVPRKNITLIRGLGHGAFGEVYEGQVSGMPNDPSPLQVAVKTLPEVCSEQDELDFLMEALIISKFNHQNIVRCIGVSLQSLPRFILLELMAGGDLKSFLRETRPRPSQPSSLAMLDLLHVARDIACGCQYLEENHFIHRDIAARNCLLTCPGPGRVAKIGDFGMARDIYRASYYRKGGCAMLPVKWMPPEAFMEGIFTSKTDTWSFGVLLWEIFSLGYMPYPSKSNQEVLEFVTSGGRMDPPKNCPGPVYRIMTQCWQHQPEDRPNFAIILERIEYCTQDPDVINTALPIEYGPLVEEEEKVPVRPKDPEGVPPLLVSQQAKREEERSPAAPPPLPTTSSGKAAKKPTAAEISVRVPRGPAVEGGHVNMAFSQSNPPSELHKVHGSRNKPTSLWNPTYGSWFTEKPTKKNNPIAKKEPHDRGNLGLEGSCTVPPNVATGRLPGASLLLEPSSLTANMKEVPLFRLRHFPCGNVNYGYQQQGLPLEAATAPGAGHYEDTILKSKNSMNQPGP

Histone deacetylase 2 = Histone deacetylase 2 (Homo sapiens, UniProt Q92769)
Sequence of Histone deacetylase 2 (Q92769 whole entry): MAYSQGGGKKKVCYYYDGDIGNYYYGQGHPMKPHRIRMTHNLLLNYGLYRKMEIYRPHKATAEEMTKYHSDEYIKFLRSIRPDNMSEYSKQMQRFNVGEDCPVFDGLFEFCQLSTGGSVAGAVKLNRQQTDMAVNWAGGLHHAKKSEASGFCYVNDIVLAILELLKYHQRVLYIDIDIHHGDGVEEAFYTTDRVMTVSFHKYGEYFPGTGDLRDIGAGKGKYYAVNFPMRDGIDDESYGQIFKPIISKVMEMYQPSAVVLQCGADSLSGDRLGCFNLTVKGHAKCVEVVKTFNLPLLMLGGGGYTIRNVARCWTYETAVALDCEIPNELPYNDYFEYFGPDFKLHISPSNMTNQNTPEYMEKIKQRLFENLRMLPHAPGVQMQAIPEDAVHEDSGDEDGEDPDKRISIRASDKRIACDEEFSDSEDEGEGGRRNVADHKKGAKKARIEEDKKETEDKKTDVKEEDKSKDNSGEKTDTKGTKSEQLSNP
Description: Inhibition of HDAC2 (unknown origin)

[3] = target: T2, ALK tyrosine kinase receptor
Target sequence in this assay (Q9UM73 whole entry): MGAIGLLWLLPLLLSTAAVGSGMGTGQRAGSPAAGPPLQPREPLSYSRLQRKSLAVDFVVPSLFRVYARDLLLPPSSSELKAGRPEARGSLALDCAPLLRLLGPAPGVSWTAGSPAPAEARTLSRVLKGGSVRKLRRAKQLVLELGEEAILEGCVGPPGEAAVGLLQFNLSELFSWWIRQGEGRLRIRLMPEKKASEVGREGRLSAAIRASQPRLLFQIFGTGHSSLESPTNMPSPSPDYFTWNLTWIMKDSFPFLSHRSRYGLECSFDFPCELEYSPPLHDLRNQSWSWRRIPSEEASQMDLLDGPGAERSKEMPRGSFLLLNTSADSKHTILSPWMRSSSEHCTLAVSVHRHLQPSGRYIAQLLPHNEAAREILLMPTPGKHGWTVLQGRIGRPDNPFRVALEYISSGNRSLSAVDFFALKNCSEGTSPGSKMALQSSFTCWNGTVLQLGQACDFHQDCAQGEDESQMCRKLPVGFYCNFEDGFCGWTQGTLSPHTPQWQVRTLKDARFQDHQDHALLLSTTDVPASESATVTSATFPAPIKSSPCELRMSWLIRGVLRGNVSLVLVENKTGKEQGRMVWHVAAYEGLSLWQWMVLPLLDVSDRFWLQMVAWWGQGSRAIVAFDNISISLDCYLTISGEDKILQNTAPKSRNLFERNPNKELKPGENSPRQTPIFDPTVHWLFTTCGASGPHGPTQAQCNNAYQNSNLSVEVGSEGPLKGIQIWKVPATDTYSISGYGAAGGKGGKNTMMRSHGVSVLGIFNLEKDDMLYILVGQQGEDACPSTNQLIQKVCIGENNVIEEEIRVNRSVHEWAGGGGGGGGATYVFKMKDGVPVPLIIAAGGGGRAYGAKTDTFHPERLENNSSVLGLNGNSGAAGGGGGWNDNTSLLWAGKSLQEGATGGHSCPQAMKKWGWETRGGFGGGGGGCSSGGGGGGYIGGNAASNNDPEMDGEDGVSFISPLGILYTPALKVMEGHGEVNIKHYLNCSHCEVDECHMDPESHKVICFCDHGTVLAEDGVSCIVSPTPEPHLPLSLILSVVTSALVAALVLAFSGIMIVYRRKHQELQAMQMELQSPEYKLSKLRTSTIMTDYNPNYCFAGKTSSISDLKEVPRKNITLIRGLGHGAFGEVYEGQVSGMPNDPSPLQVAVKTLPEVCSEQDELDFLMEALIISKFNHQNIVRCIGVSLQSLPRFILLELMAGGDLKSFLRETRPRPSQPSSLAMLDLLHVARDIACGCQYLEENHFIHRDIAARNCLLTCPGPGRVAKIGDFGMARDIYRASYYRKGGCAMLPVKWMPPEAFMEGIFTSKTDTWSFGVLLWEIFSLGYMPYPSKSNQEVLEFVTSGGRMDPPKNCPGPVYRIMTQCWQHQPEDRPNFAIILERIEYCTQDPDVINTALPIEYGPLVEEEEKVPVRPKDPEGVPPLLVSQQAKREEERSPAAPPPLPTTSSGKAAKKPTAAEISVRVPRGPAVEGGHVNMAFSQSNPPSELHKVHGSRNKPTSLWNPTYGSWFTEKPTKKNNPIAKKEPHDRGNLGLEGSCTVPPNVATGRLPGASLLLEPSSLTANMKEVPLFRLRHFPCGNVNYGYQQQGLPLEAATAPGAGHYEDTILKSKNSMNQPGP
Description: Inhibition of ALK (unknown origin) preincubated for 10 mins followed by addition of substrate and ATP for 25 mins by caliper EZ reader method

[4] = target: ALK tyrosine kinase receptor (Homo sapiens, UniProt Q9UM73, L1196M)
Sequence of ALK tyrosine kinase receptor (Homo sapiens, UniProt Q9UM73, L1196M) (Q9UM73 19-1620 L1196M limits assumed): as the sequence (Q9UM73 19-1620 limits assumed) above, with L1178M counted along it

HepG2 [5] = test: cells; format: functional, cell-based; conditions: Homo sapiens, HepG2, 72 h
Description: Antiproliferative activity against human HepG2 cells assessed as inhibition of cell proliferation measured after 72 hrs by CCK8 assay

cells = format: functional, cell-based; conditions: Homo sapiens, SKNBE2, 72 h
Description: Antiproliferative activity against human SKNBE2 cells harboring wild type ALK assessed as inhibition of cell proliferation measured after 72 hrs by CCK8 assay

MDA-MB-231 [6] = test: cells; format: functional, cell-based; conditions: Homo sapiens, MDA-MB-231, 72 h
Description: Antiproliferative activity against human MDA-MB-231 cells assessed as inhibition of cell proliferation measured after 72 hrs by CCK8 assay

MDA-MB-231 [7] = test: Induction of apoptosis in human MDA-MB-231 cells assessed as viable cells at 2 uM measured after 24 hrs by Annexin V-FITC/PI staining based flowcytometry (reference value: 93.14%); format: functional; conditions: read-out: Activity
MDA-MB-231 [8] = test: Induction of apoptosis in human MDA-MB-231 cells assessed as early apoptotic cells at 4 uM measured after 24 hrs by Annexin V-FITC/PI staining based flowcytometry (reference value: 0.64%); format: functional
MDA-MB-231 [9] = test: Induction of apoptosis in human MDA-MB-231 cells assessed as late apoptotic cells at 4 uM measured after 24 hrs by Annexin V-FITC/PI staining based flowcytometry (reference value: 5.28%); format: functional
SH-SY5Y [10] = test: Induction of apoptosis in human SH-SY5Y cells assessed as late apoptotic cells at 1 uM measured after 24 hrs by Annexin V-FITC/PI staining based flowcytometry (reference value: 14.32%); format: functional
SH-SY5Y [11] = test: Induction of apoptosis in human SH-SY5Y cells assessed as viable cells at 2 uM measured after 24 hrs by Annexin V-FITC/PI staining based flowcytometry (reference value: 77.05%); format: functional; conditions: read-out: Activity
SH-SY5Y [12] = test: Induction of apoptosis in human SH-SY5Y cells assessed as early apoptotic cells at 2 uM measured after 24 hrs by Annexin V-FITC/PI staining based flowcytometry (reference value: 0.82%); format: functional
SH-SY5Y [13] = test: Induction of apoptosis in human SH-SY5Y cells assessed as necrotic cells at 2 uM measured after 24 hrs by Annexin V-FITC/PI staining based flowcytometry (reference value: 7.81%); format: functional
SH-SY5Y [14] = test: Induction of apoptosis in human SH-SY5Y cells assessed as viable cells at 4 uM measured after 24 hrs by Annexin V-FITC/PI staining based flowcytometry (reference value: 77.05%); format: functional; conditions: read-out: Activity
SH-SY5Y [15] = test: Induction of apoptosis in human SH-SY5Y cells assessed as necrotic cells at 4 uM measured after 24 hrs by Annexin V-FITC/PI staining based flowcytometry (reference value: 7.81%); format: functional
MDA-MB-231 [16] = test: Cell cycle arrest in human MDA-MB-231 cells assessed as accumulation of cells at G1 phase at 1 uM measured after 24 hrs by PI staining based flowcytometry method (reference value: 55.32%); format: functional
MDA-MB-231 [17] = test: Cell cycle arrest in human MDA-MB-231 cells assessed as accumulation of cells at G1 phase at 4 uM measured after 24 hrs by PI staining based flowcytometry method (reference value: 55.32%); format: functional
MDA-MB-231 [18] = test: Cell cycle arrest in human MDA-MB-231 cells assessed as accumulation of cells at G2 phase at 4 uM measured after 24 hrs by PI staining based flowcytometry method (reference value: 23.89%); format: functional
SH-SY5Y [19] = test: Cell cycle arrest in human SH-SY5Y cells assessed as accumulation of cells at G1 phase at 1 uM measured after 24 hrs by PI staining based flowcytometry method (reference value: 59.8%); format: functional
SH-SY5Y [20] = test: Cell cycle arrest in human SH-SY5Y cells assessed as accumulation of cells at G2 phase at 1 uM measured after 24 hrs by PI staining based flowcytometry method (reference value: 13.23%); format: functional
SH-SY5Y [21] = test: Cell cycle arrest in human SH-SY5Y cells assessed as accumulation of cells at S phase at 2 uM measured after 24 hrs by PI staining based flowcytometry method (reference value: 27.69%); format: functional
SH-SY5Y [22] = test: Cell cycle arrest in human SH-SY5Y cells assessed as accumulation of cells at G1 phase at 4 uM measured after 24 hrs by PI staining based flowcytometry method (reference value: 59.8%); format: functional
SH-SY5Y [23] = test: Cell cycle arrest in human SH-SY5Y cells assessed as accumulation of cells at S phase at 4 uM measured after 24 hrs by PI staining based flowcytometry method (reference value: 27.69%); format: functional
[24] = target: T2, ALK tyrosine kinase receptor; test: Inhibition of human ALK in human SH-SY5Y cells assessed as inhibition of ALK phosphorylation at Tyr1278 residue at 4 uM measured after 24 hrs by Western blot assay; format: cell-based
Target sequence in this assay (Q9UM73 19-1620 limits assumed): as the sequence (Q9UM73 19-1620 limits assumed) above

[25] = target: Insulin receptor (Homo sapiens) (UniProt P06213); test: Inhibition of human InsR at 1 uM
Homo sapiens = species: Homo sapiens; test: Inhibition of human CDK at 1 uM
[26] = test system: ALK tyrosine kinase receptor (Homo sapiens), Q9UM73 [G1202R]; test: Potency index, ratio of repotrectinib IC50 to test compound IC50 for inhibition of ALK G1202R mutant (unknown origin)
Sequence of ALK tyrosine kinase receptor (Homo sapiens), Q9UM73 [G1202R] (Q9UM73 whole entry G1202R): as the sequence (Q9UM73 whole entry) above, with G1202R counted along it

HepG2 [27] = test: Potency index, ratio of crizotinib IC50 to test compound IC50 for human HepG2 cells assessed as inhibition of cell proliferation measured after 72 hrs by CCK8 assay; format: functional
A549 = test: Potency index, ratio of ceritinib IC50 to test compound IC50 for human A549 cells assessed as inhibition of cell proliferation measured after 72 hrs by CCK8 assay; format: functional
NCI-H2228 = test: Potency index, ratio of crizotinib IC50 to test compound IC50 for human NCI-H2228 cells harboring EML4/ALK […] assessed as inhibition of cell proliferation measured after 72 hrs by CCK8 assay; format: functional
[28] = target: Histone deacetylase (Homo sapiens) (UniProt Q13547+O15379+Q9UBN7+Q92769+Q9UQL6+Q8WUI4+Q9BY41+Q96DB2+P56524+Q9UKV0+Q969S8); test: Inhibition of HDAC in human SH-SY5Y cells assessed as increase of intracellular acetylated histone H3 level at 1 to 4 uM measured after 24 hrs by Western blot assay; format: cell-based; conditions: dose 1-4 µM
[29] = target: T2, ALK tyrosine kinase receptor; test: Inhibition of human ALK in human SH-SY5Y cells assessed as inhibition of ALK phosphorylation at Tyr1278 residue measured after 24 hrs by Western blot assay; format: cell-based; conditions: dose 1-4 µM
Target sequence in this assay (Q9UM73 19-1620 limits assumed): as the sequence (Q9UM73 19-1620 limits assumed) above

Histone deacetylase 1 [30] = target: T1, Histone deacetylase 1; test: biochemical
Description: Inhibition of recombinant human C-terminal His/FLAG-tagged HDAC1 (1 to 482 residues) expressed in Sf9 insect cells using Ac-peptide-AMC as substrate preincubated for 15 mins followed by addition of substrate and trypsin measured by flourescence assay

T1 sequence (Q13547 whole entry): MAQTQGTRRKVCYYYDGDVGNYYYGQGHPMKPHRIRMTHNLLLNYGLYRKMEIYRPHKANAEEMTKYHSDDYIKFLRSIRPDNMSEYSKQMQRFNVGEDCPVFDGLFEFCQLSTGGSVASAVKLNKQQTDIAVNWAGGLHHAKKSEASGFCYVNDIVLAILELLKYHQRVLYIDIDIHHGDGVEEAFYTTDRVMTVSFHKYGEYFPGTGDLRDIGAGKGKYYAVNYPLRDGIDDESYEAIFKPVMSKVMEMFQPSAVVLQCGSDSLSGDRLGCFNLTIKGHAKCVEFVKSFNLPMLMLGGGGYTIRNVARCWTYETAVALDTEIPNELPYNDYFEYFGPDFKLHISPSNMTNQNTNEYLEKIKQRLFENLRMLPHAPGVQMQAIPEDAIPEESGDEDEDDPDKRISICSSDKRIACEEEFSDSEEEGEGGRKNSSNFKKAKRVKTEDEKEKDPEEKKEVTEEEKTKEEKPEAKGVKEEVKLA

inhibition (Histone deacetylase 1 [1]): 87%
inhibition [2]: 80.8%
IC50 (Histone deacetylase 2): 9.3 nM
IC50 [3]: 2.1 nM
IC50 [4]: 1.7 nM
IC50 (HepG2 [5]): 640 nM
IC50 (cells): 50 nM
IC50 (MDA-MB-231 [6]): 460 nM
inhibition [24]: Active
inhibition [25]: Active
inhibition (Homo sapiens): 95%
Ratio IC50 [26]: 10
inhibition [28]: Active
inhibition [29]: Dose-Dependent Effect
IC50 (Histone deacetylase 1 [30]): 7.9 nM
Structure (SMILES): CC(C)S(=O)(=O)c1ccccc1Nc1nc(Nc2ccc(NC(=O)CCCCCCC(=O)NO)cc2)ncc1Cl
viability at 2 µM (MDA-MB-231 [7]): 85.1%
Activity (MDA-MB-231 [8]): 4.42%
Activity (MDA-MB-231 [9]): 14.85%
Activity (SH-SY5Y [10]): 21.05%
viability at 2 µM (SH-SY5Y [11]): 58.6%
Activity (SH-SY5Y [12]): 4.02%
Activity (SH-SY5Y [13]): 10.51%
viability at 4 µM (SH-SY5Y [14]): 38.3%
Activity (SH-SY5Y [15]): 12.95%
Activity (MDA-MB-231 [16]): 35.05%
Activity (MDA-MB-231 [17]): 34.64%
Activity (MDA-MB-231 [18]): 50.99%
Activity (SH-SY5Y [19]): 32.97%
Activity (SH-SY5Y [20]): 48.7%
Activity (SH-SY5Y [21]): 20.49%
Activity (SH-SY5Y [22]): 4.38%
Activity (SH-SY5Y [23]): 7.55%
Ratio IC50 (HepG2 [27]): 3
Ratio IC50 (A549): 3
Ratio IC50 (NCI-H2228): 3
